Measured values taken from patent US12653808B2, “Compounds for treating multiple myeloma” (Purdue Pharma L.P., priority 2018, dated 2026).
Where “and” joins values, the source holds several entries; their conditions need not be identical. Equal values may be shown once.

Experiments:
[1] = PK assessment: plasma concentrations of tinostamustine and metabolites M2 and M8, cycle 1 day one; format: in vivo, human
Description: Plasma samples were collected to determine the concentrations of tinostamustine and its metabolites (labelled M2 and M8) by a method fully validated according to the relevant guidelines. The PK profiles of tinostamustine in plasma were assessed in each patient in the escalation stage of the study, in cycle 1 only.
Patients of all cohorts and over all dose levels were sampled according to the following schedule: 0.5 hours prior to dose administration, and at 15, 30 and 45 minutes and 1, 1.25, 1.50, 2, 3, 8, 24, 48 and 72 hours from the start of tinostamustine infusion. Plasma samples were collected according to the Laboratory Manual for the determination of tinostamustine and metabolites M2 and M8 concentrations using a method fully validated according to the relevant guidelines.

[2] = system: patients with relapsed/refractory hematologic malignancies; experiment: Phase 1 dose escalation trial: safety, treatment-emergent adverse events, DLT/MTD (NCI CTCAE v4.03); format: in vivo, human; conditions: for recommended starting dose, relapse refractory multiple myeloma: 60 minutes infusion, day 1 and day 15 of 28-day cycle
Description: A phase 1 trial was carried out including a dose escalation study to investigate the safety, pharmacokinetic (PK) profiles and efficacy of tinostamustine (EDO-S101) in relapsed/refractory hematologic malignancies.
The patient had relapsed/refractory hematologic malignancies for which there are no available therapies.
The assessment of dose-limiting toxicities (DLTs) was based on cycle 1 events alone. Toxicities were assessed regarding type and severity using the National Cancer Institute (NCI) Common Terminology Criteria for Adverse Events (CTCAE) version 4.03, June 2010. Toxicity data were collected for all patients throughout their time on study. Infusion site reactions were assessed using the Phlebitis Scale developed by the Infusion Nurses Society (2011).
DLTs, which were at least possibly related to study drug, were defined as: • Any Grade 3 or 4 non-hematologic toxicity (excluding alopecia and easily correctable electrolyte abnormalities); • Nausea, vomiting or diarrhoea that persists beyond 10 days despite aggressive symptomatic treatment; • Grade 4 neutropenia or thrombocytopenia lasting for 7 days or more; • Any grade 2 or more toxicity, but persist for over 3 weeks; and • Any toxicity resulting in a delay of the next dose administration (cycle 2 day 1≥14).
To ensure patients' safety, the stopping rules were implemented to the dose escalation stage of the study.
(§1) Other safety assessments included physical examinations, Eastern Cooperative Oncology Group (ECOG) performance status determinations, electrocardiograms (ECGs), pregnancy testing for women of childbearing potential, documentation of treatment-emergent adverse events (TEAEs), clinical laboratory evaluations including haematology, blood chemistry and urinalysis, vital signs, and documentation of concomitant medication usage.
If there is no DLT observed in any of these subjects, the trial proceeds to enroll additional subjects into the next higher dose cohort. If one subject develops a DLT at a specific dose, an additional three subjects are enrolled into that same dose cohort.

[3] = system: patients with relapsed/refractory hematologic malignancies; experiment: Biochemistry: clinical chemistry abnormalities and TEAEs; format: in vivo, human
Excerpt: as §1

[4] = Compartmental population PK analysis of tinostamustine; format: in vivo, human; conditions: dose range 20 to 120 mg/m^2, infusion times 30 to 60 minutes
Description: A compartmental population PK analysis of tinostamustine was conducted to characterize its concentration-time profiles and its dependency on patient factors. For the analysis, the 24 hours plasma concentrations of tinostamustine at day one from 36 patients was used from whom the data was available. The concentration-time profiles were best described with a two-compartmental model with first order clearance from the central compartment.

multiple myeloma [5] = experiment: Tumour assessment: response to treatment, patients with multiple myeloma; format: in vivo, human; conditions: 19 patients with MM
Excerpt: (§2) Response to treatment included evaluation of overall response rate (patients with a CR plus patients with a PR), clinical benefit (CB) rate (patients with CR plus patients with PR plus patients with stable disease (SD)), progression free survival, and overall survival according to the relevant response criteria.

[6] = system: relapsed/refractory hematologic malignancies; experiment: Tumour assessment: response to treatment, all HM; format: in vivo, human; conditions: all 46 patients
Excerpt: as §2

multiple myeloma [7] = conditions: López-Iglesias et al, J Hematol Oncol 2017, 10, 127; cited from earlier work
[8] = system: patients with relapsed/refractory hematologic malignancies; experiment: Cardiac safety: electrocardiograms and cardiac disorders; format: in vivo, human
Excerpt: as §1

[9] = system: lymphoma (Hodgkin and non-Hodgkin); experiment: Tumour assessment: response to treatment, patients with lymphoma; format: in vivo, human; conditions: 27 patients with lymphoma
Excerpt: as §2

[10] = all cohorts administered over 30 or 45 minutes
[11] = doses of 20 to 80 mg/m^2, 60 min cohorts
[12] = doses of 100 or 120 mg/m^2, 60 min cohorts

For `Cn1c(CCCCCCC(=O)NO)nc2cc(N(CCCl)CCCl)ccc21` [tinostamustine], the “Cmax Mean (SD)” value ([1]; dose 60 mg/m^2, infusion time 30 minutes) was 1724 (1416) ng/mL, the “AUC Mean (SD)” value ([1]; dose 80 mg/m^2, infusion time 60 minutes) was 902 (653) h · ng/mL and the “AUC Mean (SD)” value ([1]; dose 120 mg/m^2, infusion time 60 minutes) was 1638 (578) h · ng/mL. The “patients with Grade 3 and 4 thrombocytopenia in C2 and C3 leading to withdrawal” value ([2]; 100 mg/m^2 over 60 minutes) was “three patients”, the DLT ([2]; 120 mg/m^2, lymphoma cohort) was “Thrombocytopenia” and the “serious thrombocytopenia (grade 3), also led to study discontinuation” value ([2]; HM120/60 cohort patient, of all patients) was 2%. The “TEAE with outcome of death” value ([2]; Patients (N = 46), number (percent)) was 0 (0), the “leukopenia, incidence” value ([2]; administered over 30 or 45 minutes) was 16% and the “leukopenia, incidence” value ([2]; administered over 60 minutes) was 27%. The “thrombocytopenia, incidence” value ([2]; administered over 60 minutes) was 58%, the “SAE dyspnea, hypersensitivity, osteomyelitis, pleural effusion, pneumonia, and thrombocytopenia (each)” value ([2]; all 46 patients) was 2% and the “SAE febrile neutropenia and sepsis (each)” value ([2]; all 46 patients) was 2%. For the same molecule, the “all other TEAEs, incidence” value ([2]; all 46 patients) was under 20%, the “discontinuation because of adverse events (AE)” value ([2]; all 46 patients) was 29% and the “grade 3/4 anemia, incidence” value ([2]; all 46 patients) was 22%. For the same molecule, the “grade 3/4 leukopenia/WBC decreased, incidence” value ([2]; all 46 patients) was 15% and 16%, the “grade 3/4 lymphopenia, incidence” value ([2]; all 46 patients) was 8.6% and the “grade 3/4 neutropenia/neutrophil count decreased, incidence” value ([2]; all 46 patients) was 29%. The “grade 3/4 thrombocytopenia, incidence” value ([2]; all 46 patients) was 39% and 40%, the “nausea, incidence” value ([2]; all 46 patients) was 29% and the “other TEAEs leading to study drug discontinuation (anaphylactic reaction, febrile neutropenia, hypersensitivity, pleural effusion, pruritus; each)” value ([2]; all 46 patients) was 2%. The “patients with at least one TEAE considered study drug-related” value ([2]; all 46 patients) was 38 patients, the “anaemia, incidence” value ([2]; all 46 patients, any grade) was 39% and the “leukopenia/WBC decreased, incidence” value ([2]; all 46 patients, any grade) was 21% and 22%. The “neutropenia/neutrophil count decreased, incidence” value ([2]; all 46 patients, any grade) was 29% and 28%, the “thrombocytopenia/platelet count decreased, incidence” value ([2]; all 46 patients, any grade) was 52% and the “anaemia, incidence” value [2, 10] was 37%. The “thrombocytopenia, incidence” value [2, 10] was 47%, the “recommended starting dose, relapse refractory multiple myeloma” value ([2]; baseline platelet count 100×10^9/L) was 50 mg/m^2 and the “recommended starting dose, relapse refractory multiple myeloma” value ([2]; baseline platelet count >100×10^9/L) was 60 mg/m^2. The “grade 3 or 4 anaemia, incidence” value ([2]; doses of 20 to 80 mg/m^2) was 8%, the “anaemia, incidence” value [2, 11] was 25% and the “grade 3/4 thrombocytopenia, incidence” value [2, 11] was 8%. For the same molecule, the “leukopenia, incidence” value [2, 11] was 17%, the “neutropenia, incidence” value [2, 11] was 25% and the “grade 3 or 4 anaemia, incidence” value ([2]; doses of 100 or 120 mg/m^2) was 36%. For the same molecule, the “anaemia, incidence” value [2, 12] was 64%, the “grade 3/4 thrombocytopenia, incidence” value [2, 12] was 71% and the “leukopenia, incidence” value [2, 12] was 36%. The “neutropenia, incidence” value [2, 12] was 50%, the “patients who experienced DLTs” value ([2]; lymphoma cohort, 120 mg/m^2 over 1 hour) was “Two out of six” and the “neutropenia, incidence” value ([2]; shorter infusion times) was 16%. For the same molecule, the “C-reactive protein increased TEAE” value ([3]; all patients) was 4%, the “blood creatinine increased TEAE” value ([3]; all patients) was 9% and the “blood potassium decreased/hypokalemia TEAE” value ([3]; all patients) was 11%. The “grade 3 hyperuricemia TEAE” value ([3]; considered unrelated to study drug) was 2%, the “treatment-emergent shift to grade 3 aspartate aminotransferase increased and grade 3 hypoalbuminemia (each)” value ([3]; patients with normal or grade 1 or 2 values at baseline) was 2% and the “dose linearity of PK” value [4] was “dose-linear”. The “best response PD” value (multiple myeloma [5]) was 47%, the “best response PD” value [6] was 41% and the “activity in in vitro and in vivo models against multiple myeloma” value (multiple myeloma [7]) was “potent activity”. For the same molecule, the “treatment-emergent ECG abnormality indicated to be clinically significant” value ([8]; all patients) was “No patient”, the “treatment-emergent QTcF interval >500 msec” value ([8]; all patients) was “One patient” and the “prolonged QTcF interval” value ([8]; one subject, MM 80/45 cohort, discontinuation visit three weeks after only dose, screening QTcF 423 msec) was 677 ms. For the same molecule, the “cardiac disorder considered study drug-related (grade 1 palpitations)” value ([8]; overall) was 2% and the “best response PD” value [9] was 37%.
